Results reported in patent US5856189A, “Cell culture model for drug bioavailability” (priority 1997, dated 1999).

Columns and labels:
[1] = test system: CYP3A4 mRNA (Caco-2 cells)
Protocol: Harvesting for mRNA Analyses and RNA Isolation
The medium was aspirated and the culture inserts were washed three times with Hanks' BSS containing 15 mM HEPES. […] After 5 minutes, the cell lysate was transferred to a microcentrifuge tube and kept at -80° C. pending further processing. At a later time, the lysate was thawed quickly at 65° C., and total RNA was isolated according to the protocol of P. Chomczynski and N. Sacchi. Briefly, extraction was performed using the denaturing solution, 2M sodium acetate (pH 4), phenol, and chloroform (1:0.1:1:0.2). Next, precipitation was effected with 2 volumes of ethanol. Resolubilization and reprecipitation was then performed using the denaturing solution and 2 volumes of ethanol. […] The reagent volumes were adjusted proportionately as appropriate for the initial lysate volume.
(§1) cDNA was prepared from the total RNA using reverse transcriptase from avian myeloblastosis virus (Seikagaku America). […] The polymerase chain reaction was performed on 1 μL of a 1:10 dilution in water of a prepared cDNA.
Each thermal cycle consisted of 95° C. for 1 min, then 65° C. for 1 min 15 sec; after completing all cycles, a 10 min extension step at 65° C. was performed. The number of cycles performed in each PCR reaction is set forth below in the Examples.
(§2) PCR products were electrophoresed on agarose gels and stained with ethidium bromide. […] PCR products were judged to be of the size appropriate for amplification of the specific cDNA by comparison with molecular weight standards included on each gel.
An internal standard for quantitative competitive PCR of CYP3A4 cDNA was prepared by inserting a 30 base pair segment into the cDNA sequence to be amplified. PCR reaction mixtures were prepared by combining serial dilutions of a known amount of the standard cDNA and constant amounts of the unknown cDNA. The two cDNAs were amplified together and the products were separated on agarose gels. After staining with ethidium bromide, the two bands were quantitated densitometrically. An equivalence point (at which the densities of the standard and unknown bands are of equal optical density) was determined; the concentration of the unknown is equal to that of the standard at the point of equivalence.
The cells from all experiments were maintained in their respective differentiation media for two weeks post-confluence. Thereafter, the cells were used for midazolam metabolism studies and/or harvested for analysis of protein or mRNA (described below).
(§3) The numbers of PCR cycles were as follows: CYP3A4, 36; CYP3A5, 33; CYP3A7, 39; mdr-1, 34; IFABP, 32; and villin, 27.
(§4) At that time, the medium was replaced with medium without vitamin D (except that contributed by the 5% FBS. Total RNA was then prepared as described above and subjected to RT-PCR using synthetic oligonucleotide primer pairs designed to selectively amplify fragments of the CYP3A4 and villin cDNAs (see Table 3). The numbers of PCR cycles were as follows: CYP3A4, 36; and villin, 27. Moreover, immunoblots were performed as described above for CYP3A, NADPH cytochrome P450 reductase, P-glycoprotein, and villin. The protein loads used for the immunoblot procedures were as follows: 5 μg for CYP3A, P-glycoprotein, villin; and 40 ,μg for NADPH cytochrome P450 reductase.

LFABP = experiment: Immunoblot of LFABP in Caco-2 cells; type: cell-based, human; settings: two weeks treatment, varying concentrations
Excerpt: (§5) The homogenates were electrophoresed in polyacrylamide gels containing 0.1% SDS, and the separated proteins were electrophoretically transferred to nitrocellulose. Nonspecific binding sites were blocked using 0.3% Tween 20 and 5% nonfat dry milk (Carnation) in Tris buffered saline.
(§6) P-glycoprotein was detected using a polyclonal rabbit antibody (Oncogene Science), and villin was detected using a mouse monoclonal antibody (Chemicon International).
(§7) Secondary antibodies of appropriate specificities conjugated with horseradish peroxidase were obtained commercially (rabbit anti-mouse IgG and goat anti-rabbit IgG/A/M from Zymed and mouse anti-goat IgG/A/M from Pierce). Binding of secondary antibodies was detected using the enhanced chemiluminescence (ECL™) reagents and film from Amersham.
(§8) Cell homogenates were then prepared as described above and immunoblots were performed; the Caco-2 protein loads were as follows: 10 ,μg for CYP3A, CYP3A5, P-glycoprotein, villin; 25 pg for CYP1A1, CYP2D6; 40 μg for IFABP, LFABP; 80 μg for NADPH cytochrome P450 reductase, cytochrome b5 (the villin, IFABP, and LFABP served as control proteins).

CYP2D6 = settings: two weeks treatment, varying concentrations
Excerpt: as §5
CYP2D6 was detected using a polyclonal rabbit antibody developed against unique antigenic peptides and was obtained from Dr. Alastair Cribb (Merck Research Laboratories, West Point, Pa.).
as §7

CYP3A (Caco-2 cells) [2] = test system: CYP3A (Caco-2 cells)
Protocol: At the end of that period, the medium was replaced with medium not containing vitamin D (except that contributed by the 5% FBS). […] After 6 hours, the apical and basolateral media were removed separately and analyzed for 1'-OH-MDZ concentration.
As previously indicated, the medium was aspirated and the inserts were washed three times with Hanks'BSS. […] After 6 hours, the amount of 1'-OH-MDZ was measured in the combined luminal plus basolateral medium from each culture and the rate of formation calculated.
For the experiments of this example, all cells (Caco-2 cell clones and the parent cell line) were grown on Matrigel-coated teflon culture inserts. […] At the end of this period, the medium was replaced with medium not containing vitamin D (except that contributed by the 5% FBS). Next, MDZ (4 μM) was added to the apical compartment. […] Catalytic activity and levels of protein expression were determined as previously described.
Catalytic activity and levels of protein expression were determined as previously described.

cytochrome b5 = experiment: Immunoblot of cytochrome b5 in Caco-2 cells; type: cell-based, human; settings: two weeks treatment, varying concentrations
Excerpt: as §5, §7, §8

villin = experiment: Immunoblot of villin in Caco-2 cells; type: cell-based, human; settings: for villin expression at the highest concentrations used: FIG. 3
Excerpt: as §5, §6, §7, §8

[3] = test system: NADPH cytochrome P450 reductase; experiment: Immunoblot of NADPH cytochrome P450 reductase in Caco-2 cells; settings: for concentrations at which NADPH cytochrome P450 reductase level increased: two weeks treatment
Excerpt: as §5, §7, §8, §4

CYP1A1 = experiment: Immunoblot of CYP1A1 protein in Caco-2 cells; type: cell-based, human; settings: two weeks treatment, varying concentrations
IFABP = experiment: Immunoblot of IFABP in Caco-2 cells; type: cell-based, human; settings: two weeks treatment, varying concentrations
Excerpt: as §5, §6, §7, §8

CYP3A (Caco-2 cells) [4] = experiment: Immunoblot of CYP3A immunoreactive protein in treated Caco-2 cells; settings: for CYP3A4 expression at the highest concentrations used: FIGS. 2C and 3
Protocol: The medium was aspirated and the inserts were washed three times with Hanks' BSS containing 15 mM HEPES. Cells grown on Matrigel- (or Growth Factor Reduced Matrigel-) coated inserts were removed from the membranes using Dispase according to the manufacturer's protocol. Thereafter, 5 mM EDTA in normal saline containing 1 mM PMSF and 1 mM benzamidine was added to inhibit further digestion. The cell suspension was transferred to a microcentrifuge tube and pelleted by centrifugation at 325 g. The pellets were washed three times with Hanks' BSS containing 15 mM HEPES, 1 mM PMSF, and 1 mM benzamidine. The final pellet was resuspended in a solution of 20% v/v glycerol, 100 mM Tris HCl (pH 7.4), 10 mM EDTA, 1 mM dithiothreitol, I mM PMSF, 1 mM benzamidine, and 100 μg/mL aprotinin and homogenized in a conical ground glass tissue grinder with 20 passes of a ground glass pestle. The homogenate was subjected to 10 seconds of sonication and was then kept at -80° C. until analysis.
Cells grown on uncoated inserts or inserts coated with non-Matrigel matrices were harvested by scraping into Hanks' BSS containing HEPES and protease inhibitors, washed three times, and then homogenized, sonicated, and frozen as described above.
as §5
CYP1A1 was detected using a polyclonal goat antibody (Gentest) developed against rat CYP1A1 and CYP1A2. […] CYP3A proteins were detected using a mouse monoclonal antibody ("13-7-10") obtained from Dr. Pierre Kremers (Universite de Liege, Liege, Belgium). […] This antibody detects all known forms of human CYP3A.
as §7
In some cases, immunoblot protein concentrations were determined by computer-aided densitometry. When this procedure was conducted, optical densities were performed on a Macintosh (Apple) computer using the publicly available NIH Image program (developed at the U.S. National Institutes of Health and available on the Internet at http://rsb.info.nih.gov/nih-image/). Individual exposures were scanned into binary images with a ScanJetIIc color scanner (Hewlett-Packard). An optical density-concentration standard curve was prepared using the bands from second loaded serial dilutions of purified CYP3A4 protein, and the optical densities of unknowns were converted to quantitative numbers by comparison to this curve. This allowed for correction of the nonlinearity of ECL light output and ECL Hyperfilm.

P-glycoprotein = experiment: Immunoblot of P-glycoprotein in Caco-2 cells; type: cell-based, human
Excerpt: as §5, §6, §7, §8

CYP3A5 = experiment: Immunoblot of CYP3A5 protein in Caco-2 cells; type: cell-based, human; settings: two weeks treatment, varying concentrations
Protocol: CYP3A5 was detected using an immunoadsorbed polyclonal rabbit antibody obtained from Dr. Steven A. Wrighton (Eli Lilly). The antibody may be generated by injecting rabbits subcutaneously with 100 μg of P450IIIA5 in 0.75 mL of phosphate-buffered saline in an emulsion made with 1.25 mL of Freund's complete adjuvant. Four weeks later, 50 μg of P450IIIA5 (in the same preparation) is injected. Finally, eight weeks from the initial injection, 50 μg of […] in 300 μL of phosphate-buffered saline is injected intravenously into the rabbits' ear vein. Serum was obtained 10 weeks following the initial immunization and weekly thereafter. The IgG fraction was then isolated and antibodies specific to CYP3A5 were isolated by adsorption of contaminating antibodies to sepharose-bound CYP3A4 [S. A. Wrighton et al., Mol. Pharmacol. 38:207-213 (1990).

CYP3A (Caco-2 cells) [5] = target: CYP3A (Caco-2 cells) (Homo sapiens, UniProt P08684); settings: serum-free; 4 μM MDZ apical, 6.5 h; FIG. 9
Protocol: Standards were also prepared in duplicate. Known amounts of MDZ and 1'-OH-MDZ (1-50 ng) were combined with 100 mM potassium phosphate buffer, pH 7.4.
Unknowns and standards were extracted with 5 mL ethyl acetate and the upper organic layer transferred to clean tubes. The solvent was evaporated to dryness under a stream of nitrogen. The remaining solvent was reconstituted in 100 μL derivatizing reagent (10% N-methyl-N-(t-butyldimethylsilyl)trifluoroacetamide in acetonitrile).
At the end of this period, the medium was replaced with medium not containing vitamin D (except that contributed by the 5% FBS). Next, 4 μM MDZ was added to the apical (luminal) or basolateral (serosal) medium of the cells.
Parent drug and metabolite concentrations measured at 1 and 2 hours after MDZ administration were used for computation. The amount of 1'-OH-MDZ formed during this interval was determined as the sum of metabolite in the apical and basolateral compartments at 2 hours minus the total amount measured at 1 hour.
Because the incubation medium contained significant amounts of FBS, the fraction of MDZ bound to culture medium proteins was measured by equilibrium dialysis. […] The unbound concentration of MDZ in the apical and basolateral compartments during cell culture was calculated as the product of the experimentally determined MDZ-free fraction and total MDZ concentration. Since MDZ concentrations in the apical and basolateral compartments were not at equilibrium during the 1-2 hour MDZ incubation interval, the intracellular reaction was assumed to be driven by a MDZ concentration that was more closely aligned with the concentration in the basolateral compartment.
At the end of this period, the medium was replaced with medium containing neither serum nor vitamin D. Next, MDZ (4 μM) was added to the apical compartment.

Caco-2 cells [6] = experiment: Apical/basolateral distribution of midazolam and metabolite across Caco-2 monolayers; settings: every time point, also after basolateral MDZ
Excerpt: At the end of this period, the medium was replaced with medium not containing vitamin D (except that contributed by the 5% FBS).

Caco-2 cells [7] = experiment: Glucuronidation of 1'-OH-MDZ in Caco-2 cells; settings: 2-24 h with 4 μM MDZ; β-glucuronidase
Protocol: The experiments of this example assess whether glucuronidation occurs in the culture system of the present invention. […] Each of a complete set of parallel 0.5 mL samples was diluted to a volume of 1 mL and spiked with 20 ng 1'-[^2 H2 ],1'-OH-MDZ (no glucuronidase treatment).

Caco-2 cells [8] = settings: cited from earlier work
[9] = test system: CYP3A5 mRNA (Caco-2 cells); experiment: RT-PCR of CYP3A5 mRNA in treated Caco-2 cells; settings: 0.05-1.0 μM, two weeks
Protocol: as §1
(§9) Each thermal cycle consisted of 95° C. for 1 min, then 65° C. for 1 min 15 sec; after completing all cycles, a 10 min extension step at 65° C. was performed.
as §2, §3

[10] = test system: CYP3A7 mRNA (Caco-2 cells); experiment: RT-PCR of CYP3A7 mRNA in treated Caco-2 cells; settings: 0.05-1.0 μM, two weeks
Protocol: as §1, §9, §2, §3

[11] = test system: CYP3A3 mRNA (Caco-2 cells); experiment: RT-PCR of CYP3A3 mRNA in treated Caco-2 cells; type: cell-based, human; settings: treated or untreated Caco-2 cells
Excerpt: Primer sequences for amplification of CYP3A3, CYP3A4, CYP3A5, and
These are the same primer sequences previously used by J. C. Kolars et al. [Pharmacogenetics 4:247-259 (1994)], except that a different antisense primer (SEQ ID NO:9) was used for CYP3A5, and the first sense primer for CYP3A3 was paired with the second antisense primer used by Kolars et al. (i.e., in the present invention, SEQ ID NO:1 was paired with SEQ ID NO:2).

[12] = two weeks treatment from confluence, 4 μM MDZ apical, 6 h, FIG. 2A

CYP3A (Caco-2 cells) (Homo sapiens, UniProt P08684), sequence (P08684 2-503): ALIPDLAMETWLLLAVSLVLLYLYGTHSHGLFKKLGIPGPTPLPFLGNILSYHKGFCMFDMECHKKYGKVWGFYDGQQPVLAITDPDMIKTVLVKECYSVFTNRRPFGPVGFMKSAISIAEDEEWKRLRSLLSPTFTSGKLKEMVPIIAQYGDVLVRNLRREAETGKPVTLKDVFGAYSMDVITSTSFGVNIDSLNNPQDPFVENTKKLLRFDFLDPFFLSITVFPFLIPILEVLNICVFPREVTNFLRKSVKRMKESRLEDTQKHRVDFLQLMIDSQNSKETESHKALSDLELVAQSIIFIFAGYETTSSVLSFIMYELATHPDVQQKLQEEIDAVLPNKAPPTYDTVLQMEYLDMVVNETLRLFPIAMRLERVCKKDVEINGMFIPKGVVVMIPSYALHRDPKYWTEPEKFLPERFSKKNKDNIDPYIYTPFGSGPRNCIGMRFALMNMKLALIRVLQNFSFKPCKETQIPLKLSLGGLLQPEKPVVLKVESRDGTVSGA

## C=C1CC[C@H](O)C/C1=C/C=C1\CCC[C@]2(C)[C@@H]([C@H](C)/C=C/[C@H](C)C(C)C)CC[C@@H]12 [vitamin D2, ergocalciferol]
[1]
  enhancement of CYP3A4 mRNA expression: did not appear to enhance CYP3A4 mRNA expression

## CC1(S(=O)(=O)O)CC(=O)c2ccccc2C1=O (stereo not shown) [vitamin K, menadione sodium bisulfite]
[1]
  enhancement of CYP3A4 mRNA expression: did not appear to enhance CYP3A4 mRNA expression

## C=C1CC[C@H](O)C/C1=C/C=C1\CCC[C@]2(C)[C@@H]([C@H](C)CCCC(C)(C)O)CC[C@@H]12 [25-(OH)-D3, 25-hydroxyvitamin D3]
LFABP
  level of LFABP protein: Neither of the FABPs showed changes in levels of expression
CYP2D6
  level of CYP2D6 protein: did not appear to change
CYP3A (Caco-2 cells) [2]; 15 μM, relative to maximum at 5 μM, FIG. 2B
  CYP3A catalytic activity at 15 μM: substantially declined
CYP3A (Caco-2 cells) [2]; 20 μM, FIG. 2B
  CYP3A catalytic activity at 20 μM: declining still further
CYP3A (Caco-2 cells) [2]; relative to 1α,25-(OH)2 -D3
  maximal CYP3A catalytic activity achieved: not as great as that achieved with 1α,25-(OH)2 -D3
CYP3A (Caco-2 cells) [2]; [12]
  concentration at which increase in CYP3A catalytic activity was evident / began: 0.25 µM
CYP3A (Caco-2 cells) [2]; two weeks treatment from confluence, FIG. 2A
  concentration at which CYP3A catalytic activity plateaued: > 1.0 µM
CYP3A (Caco-2 cells) [2]; two weeks treatment, FIG. 2B
  concentration of maximal CYP3A catalytic activity: 5 µM
Cytochrome b5
  level of cytochrome b5 immunoreactive protein: did not appear to change
villin; concentrations ≥10 μM, two weeks, not shown
  level of villin immunoreactive protein: decrease slightly
villin
  villin expression at the highest concentrations used: lower levels of expression
[3]
  concentrations at which NADPH cytochrome P450 reductase level increased: ≥ 0.5 µM
CYP1A1
  level of CYP1A1 protein: did not appear to change
IFABP
  level of IFABP protein: Neither of the FABPs showed changes in levels of expression
CYP3A (Caco-2 cells) [4]
  CYP3A4 expression at the highest concentrations used: lower levels of expression
CYP3A (Caco-2 cells) [4]; two weeks treatment, FIG. 2C
  concentration at which CYP3A immunoreactive protein plateaued: > 1.0 µM
  concentration at which increase in CYP3A immunoreactive protein was evident / began: 0.25 µM
P-glycoprotein; two weeks treatment
  concentrations at which immunoreactive P-glycoprotein increased: ≥ 2.5 µM
CYP3A5
  level of CYP3A5 protein: little change

## OCc1ncc2n1-c1ccc(Cl)cc1C(c1ccccc1F)=NC2 [1'-OH-MDZ, 1'-hydroxymidazolam]
CYP3A (Caco-2 cells) [5]
  rate of 1'-OH-MDZ formation under serum-free incubation: decreased compared to that measured in the presence of serum
  rate of 1'-OH-MDZ formation, luminal vs basolateral medium: greater in the luminal medium than in the basolateral medium
Caco-2 cells [6]
  1'-OH-MDZ concentration, apical vs basolateral: greater in the apical medium than in the basolateral medium
Caco-2 cells [7]
  glucuronidation of 1'-OH-MDZ: had not occurred

## CC(=O)OC/C=C(C)/C=C/C=C(C)/C=C/C1=C(C)CCCC1(C)C [Vitamin A, retinol acetate]
[1]
  enhancement of CYP3A4 mRNA expression: did not appear to enhance CYP3A4 mRNA expression

## CCCC(=O)[O-].[Na+] [sodium butyrate]
[1]
  enhancement of CYP3A4 mRNA expression: did not appear to enhance CYP3A4 mRNA expression

## C=C1CC[C@H](O)C/C1=C/C=C1\CCC[C@]2(C)[C@@H]([C@H](C)CCCC(C)C)CC[C@@H]12 [D3, cholecalciferol]
CYP3A (Caco-2 cells) [2]; up to 1.0 μM, two weeks
  effect on midazolam metabolism: no effect
CYP3A (Caco-2 cells) [4]; up to 1.0 μM, two weeks
  effect on immunoreactive CYP3A protein: no effect
Caco-2 cells [8]; Giuliano et al.
  Caco-2 cell growth: decrease in cell growth
Caco-2 cells [8]; Halline et al.
  Caco-2 cell proliferation: dose-dependent inhibition of cell proliferation

## C=C1/C(=C\C=C2/CCC[C@]3(C)[C@@H]([C@H](C)CCCC(C)(C)O)CC[C@@H]23)C[C@@H](O)C[C@@H]1O [1α,25-(OH)2 -D3, 1α,25-dihydroxyvitamin D3]
LFABP
  level of LFABP protein: Neither of the FABPs showed changes in levels of expression
CYP2D6
  level of CYP2D6 protein: did not appear to change
[1]; 0.25 μM, FIG. 5A
  exposure time at which CYP3A4 mRNA appeared to plateau: 120 h
  exposure time until increase in CYP3A4 mRNA was evident: 3 to 4 h
[1]; 0.05-1.00 μM, two weeks from confluence
  CYP3A4 mRNA expression, dose-response: increased CYP3A4 mRNA expression at all concentrations used
[1]; added to differentiation medium (0.63 μM), two weeks post-confluence, Matrigel-coated Millicell CM inserts
  expression of CYP3A4 mRNA: dramatic increase in the expression of CYP3A4 mRNA
CYP3A (Caco-2 cells) [2]; 0.25 μM two weeks, clones 4-8 and parent, untreated below limits of quantitation
  CYP3A catalytic activity, clones and parent line: demonstrably greater catalytic activity than the untreated cells
CYP3A (Caco-2 cells) [2]; 0.25 μM, 4 μM MDZ apical, 6 h, FIG. 5B
  exposure time until midazolam metabolism first detectable: 12 h
CYP3A (Caco-2 cells) [2]; 5% FBS media with 0.25 μM 1α,25-(OH)2 -D3
  difference in CYP3A catalytic activity among culture media: less than 4 fold
CYP3A (Caco-2 cells) [2]; M-, D+, 0.25 μM
  CYP3A protein and catalytic activity without Matrigel: increased CYP3A protein and catalytic activity in the absence of Matrigel
CYP3A (Caco-2 cells) [2]; apical concentrations, FIG. 2A
  extent of midazolam metabolism: dramatic increase in the extent of midazolam metabolism
CYP3A (Caco-2 cells) [2]; clones and parent with and without treatment, p=0.0003
  correlation (R) of midazolam 1'-hydroxylation activity with CYP3A immunoreactive protein: 0.987
CYP3A (Caco-2 cells) [2]; [12]
  concentration at which increase in CYP3A catalytic activity was evident / began: 0.05 µM
villin
  villin expression at the highest concentrations used: lower levels of expression
[3]; 0.25 μM two weeks
  NADPH cytochrome P450 reductase expression among clones and parent line: variable responsiveness
[3]; 0.25 μM, FIG. 5A
  exposure time until NADPH cytochrome P450 reductase increased: 168 h
[3]
  concentrations at which NADPH cytochrome P450 reductase level increased: ≥ 0.05 µM
CYP1A1
  level of CYP1A1 protein: did not appear to change
[9]
  CYP3A5 mRNA expression: appeared to increase in response to 1α,25-(OH)2 -D3, but to a much lesser degree
CYP3A (Caco-2 cells) [4]; 0.25 μM two weeks, all five clones and parent
  CYP3A immunoreactive protein, clones and parent line: increased levels of CYP3A immunoreactive protein
CYP3A (Caco-2 cells) [4]; 0.25 μM, FIG. 5A
  exposure time until increased CYP3A protein was evident: 18 h
CYP3A (Caco-2 cells) [4]; 0.5 μM, untreated 7.9
  CYP3A content by densitometry: 20.6 pmol CYP3A/mg of total protein
CYP3A (Caco-2 cells) [4]; M+, D+, 0.25 μM
  CYP3A expression in response to 1α,25-(OH)2 -D3 on Matrigel: clearly enhanced when the Caco-2 cells were grown on Matrigel
CYP3A (Caco-2 cells) [4]
  CYP3A4 expression at the highest concentrations used: lower levels of expression
CYP3A (Caco-2 cells) [4]; two weeks treatment, FIG. 2C
  concentration at which increase in CYP3A immunoreactive protein was evident / began: 0.05 µM
[10]
  CYP3A7 mRNA expression: appeared to increase in response to 1α,25-(OH)2 -D3, but to a much lesser degree
P-glycoprotein; 0.25 μM, FIG. 5A
  exposure time until P-glycoprotein increased: about 72 hours
CYP3A5
  level of CYP3A5 protein: little change
[11]
  CYP3A3 mRNA: not detected

## NCC(=O)CCC(=O)O [delta-aminolevulinic acid]
[1]
  enhancement of CYP3A4 mRNA expression: did not appear to enhance CYP3A4 mRNA expression
